The values that follow come from patent US20060116375A1, “4-[(2,4-Dichloro-5-methoxyphenyl)amino]-6-alkoxy-7-ethynyl-3-quinolinecarbonitriles for the treatment of ischemic injury” (Wyeth, priority 2004, published 2006).

Test [1] deals with Recombinant human Src enzyme (Homo sapiens, UniProt P12931). Kind of test: Src kinase assay (LANCE homogeneous FRET). As to conditions: 100 μM ATP, 70 min at 37° C.; multiple entries = tested multiple times. It is filed as biochemical. Here is the method: Recombinant human Src enzyme was obtained from PanVera (P3044). […] Homogeneous fluorescence resonance energy transfer kinase assays were performed using the europium/APC detection format (LANCE, Perkin Elmer). Src enzyme (10 ng) was mixed with biotinylated peptide (final concentration 2 μM), 50 mM Hepes (pH 7.5), 10 mM MgCl2, 20 ug/ml BSA, 0.001% Brij-35 (Sigma), 100 μM ATP, 1% DMSO. The kinase reaction was incubated for 70 min at 37° C. The reaction was stopped with EDTA at a final concentration of 30 mM EDTA/25 mM Hepes (pH 7.5)/10 μg/ml BSA. The mixture was combined with Eu-labeled anti-phosphotyrosine antibody PT66 (Perkin Elmer, AD0068) and Streptavidin Surelight-APC (Perkin Elmer, CR130-100) in 50 mM Hepes (pH 7.5)/20 μg/ml BSA, and incubated for 30 min according to manufacturer's specifications. Fluorescence intensity at 665 nm was used to monitor the extent of the kinase reaction. Multiple entries for a given compound indicate that it was tested multiple times.
In general terms: TR-FRET usually uses a lanthanide donor and a delayed reading to cut background.

In test [2] the target is Rat2 fibroblasts stably transformed with v-Src/Hu c-Src fusion gene (Homo sapiens, UniProt P12931, cells depend on it, form not given). Kind of test: Anchorage independent Src-transformed fibroblast proliferation assay. It is filed as cell-based, rat. As to conditions: suspension growth, MTS on Day 5; multiple entries = tested multiple times; read-out: Src cell IC50. Here is the method: Anchorage Independent Src-transformed Fibroblast Proliferation Assay
Rat2 fibroblasts stably transformed with a plasmid containing a CMV promotor controlled v-Src/Hu c-Src fusion gene in which the catalytic domain of human c-Src was inserted in place of the v-Src catalytic domain in the v-Src gene are used for the measurement of src dependent suspension growth. Ultra-low cluster plates (Costar # 3474) are seeded with 10,000 cells per well on Day 1. Alternatively, Ultra-low cluster plates (Costar 3474) treated with Sigmacote (Sigma), rinsed with 70% ethanol, after drying in the hood, are seeded with 5000 cells.

Test [3] has as its system rat model of transient focal ischemia. Briefly: Rat model of transient focal ischemia (90 min MCA occlusion, reperfusion 48 hours). It is filed as in vivo, Wistar rats. To be noted: for reduction in infarct volume as a percent of control: 48 hours post MCA occlusion, statistical error 7-10%; for improved recovery from stroke-induced neurological deficits, as a percent of control: evaluated over 48 hours, statistical error 10-12%. Here is the method:
IV Administration of Example 2 Provides Neuroprotection in a Model of Transient Focal Ischemia
Example 2 was tested in a rat model of transient focal ischemia. Wistar rats were subjected to a 90 min occlusion of the middle cerebral artery (MCA) using an intraluminal suture approach as described by Longa et al., Stroke 1989, 20:84 followed by reperfusion for 48 hours. Four hours after the initial onset of ischemia, animals received compound of Example 2 as a single i.v. bolus in 5% dextrose, 0.9% lactic acid at pH 4.5-5.0 (3 mg/kg, 10 mg/kg or 30 mg/kg). Following reperfusion, the animals were evaluated over a 48 hour period for neurological function deficit. Infarct size was measured following sacrifice at 48 hours post MCA occlusion.

Test [4] deals with rat model of intracerebral hemorrhage. Briefly: Rat model of intracerebral hemorrhage induced by intrastriatal infusion of collagenase. It is filed as in vivo. To be noted: measured 24 hours later. Here is the method: IV Administration of Example 2 Provides Neuroprotection in the Model of Hemorrhagic Stroke
Example 2 was tested in a rat model of intracerebral hemorrhage induced by intrastriatal infusion of collagenase substantially as described by Rosenberg et al., Stroke, 1990, 20:801. In this model, infusion of collagenase into caudate nucleus leads to proteolytic destruction of collagen in basal lamina of blood vessels and induces intracranial bleeding and edema peaking in 24-48 hours. Example 2 was administered at 4 hours post-induction of hemorrhagic stroke as a single i.v injection at the doses of 10 mg/kg or 30 mg/kg. 24 hours later brain water content was determined as a measure of edema.

Test [5] relates to rat model of permanent occlusion of middle cerebral artery. Briefly: Rat model of permanent occlusion of middle cerebral artery (permanent focal ischemia). The format is in vivo. How it is done: IV Administration of Example 2 Provides Neuroprotection and Improves Long-Term Neurological Recovery in a Model of Permanent Focal Ischemia
Example 2 was tested in a rat model of permanent occlusion of middle cerebral artery, without the reperfusion, substantially as described by Chen et al., Stroke, 1986, 17:738. This is a more stringent model than the transient focal ischemia. Two hours following an electrocoagulation of middle cerebral artery, vehicle or Example 2 were administered at 10 mg/kg i.v followed by 3 additional doses of 10 mg/kg iv administered at 4, 24 and 26 hours post-induction of stroke. In one study, volume of infracted brain tissue was evaluated at 48 hour post-stroke. In a second study, animals were subjected to testing of sensori-motor function based on tactile and propioceptive limb placement substantially as described by DeRyck et al., Brain Res. 1992, 573:44 at three day intervals over a timecourse of three weeks following stroke. In the animals treated with Example 2 a statistically significant reduction by 24% of the infarct volume was found at 48 hours post-induction of stroke.

Where [6] appears, read: 10 mg/kg single i.v. bolus 4 hours after onset of ischemia.
Where [7] appears, read: 30 mg/kg single i.v. bolus 4 hours after onset of ischemia.

Where “and” joins values, the source holds several entries; their conditions need not be identical. Equal entries are not always repeated.

Chain of Rat2 fibroblasts stably transformed with v-Src/Hu c-Src fusion gene (P12931 whole entry, stated change not applied, the tested form may be a part): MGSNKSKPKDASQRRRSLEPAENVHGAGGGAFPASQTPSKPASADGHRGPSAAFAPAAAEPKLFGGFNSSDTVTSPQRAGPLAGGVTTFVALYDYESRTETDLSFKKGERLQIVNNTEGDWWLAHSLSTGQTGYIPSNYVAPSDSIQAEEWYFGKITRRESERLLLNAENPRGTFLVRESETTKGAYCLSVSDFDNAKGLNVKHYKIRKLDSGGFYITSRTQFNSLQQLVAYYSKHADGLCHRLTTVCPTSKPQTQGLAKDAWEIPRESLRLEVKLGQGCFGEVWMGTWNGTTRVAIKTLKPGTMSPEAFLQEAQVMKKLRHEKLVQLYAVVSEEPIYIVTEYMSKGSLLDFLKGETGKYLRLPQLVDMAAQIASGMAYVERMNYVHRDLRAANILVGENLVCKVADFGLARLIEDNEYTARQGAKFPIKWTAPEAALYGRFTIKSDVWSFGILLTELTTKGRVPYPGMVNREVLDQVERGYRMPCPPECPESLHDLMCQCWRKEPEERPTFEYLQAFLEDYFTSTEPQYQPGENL
Chain of Recombinant human Src enzyme (P12931 whole entry): as the sequence (P12931 whole entry, stated change not applied, the tested form may be a part) above

For `COc1cc(Nc2c(C#N)cnc3cc(C#CCCN(C)C)c(OC)cc23)c(Cl)cc1Cl` [Example 1, 4-[(2,4-Dichloro-5-methoxyphenyl)amino]-7-[4-(dimethylamino)but-1-ynyl]-6-methoxy-3-guinolinecarbonitrile], the IC50 in test [1] is 5 nM and 4.7 nM. The GI50 in test [2] is 252 nM and 240 nM.
For `COc1cc(Nc2c(C#N)cnc3cc(C#CCCN4CCN(C)CC4)c(OC)cc23)c(Cl)cc1Cl` [Example 2, 4-[(2,4-Dichloro-5-methoxyphenyl)amino]-6-methoxy-7-[4-(4-methylpiperazin-1-yl)but-1-ynyl]-3-guinolinecarbonitrile], the IC50 in test [1] was 3.5 nM and 4.2 nM. For the same molecule, the “reduction in infarct volume as a percent of control” value in test [3] (setting [6]) is 32%; in test [3] (setting [7]), 40%. The entries for the “improved recovery from stroke-induced neurological deficits, as a percent of control” value in test [3] (setting [6]) and in test [3] (setting [7]) were 35% and 53%, respectively. Also, the GI50 in test [2] was 71 nM and 70 nM and 77 nM. For the same molecule, the “reduction of post-hemorrhagic brain edema (brain water content)” value in test [4] (10 mg/kg single i.v. injection 4 hours post-induction) amounted to 18%; in test [4] (30 mg/kg single i.v. injection 4 hours post-induction), 24%. Moreover, in test [5] (10 mg/kg i.v. at 2, 4, 24 and 26 hours post-induction of stroke, 48 hours post-stroke), the “reduction of the infarct volume” value was 24%. In addition, the “long-term sensorimotor recovery from neurological deficits (limb placement)” value in test [5] (10 mg/kg i.v. at 2, 4, 24 and 26 hours post-stroke, tested at three day intervals over three weeks) is reported as “significantly improved long-term sensorimotor recovery”.
Turning to `COc1cc(Nc2c(C#N)cnc3cc(C#CCCN4CCOCC4)c(OC)cc23)c(Cl)cc1Cl` [Example 3, 4-[(2,4-Dichloro-5-methoxyphenyl)amino]-6-methoxy-7-(4-morpholin-4-ylbut-1-ynyl)-3-guinolinecarbonitrile], in test [1], the IC50 was 4 nM and 4.1 nM. Also, the GI50 in test [2] is 206 nM and 183 nM.
In the case of `COc1cc(Nc2c(C#N)cnc3cc(C#CCCN4CCNCC4)c(OC)cc23)c(Cl)cc1Cl` [Example 4, 4-[(2,4-Dichloro-5-methoxyphenyl)amino]-6-methoxy-7-(4-Piperazin-1-ylbut-1-ynyl)-3-quinolinecarbonitrile], in test [1], the IC50 was 5.9 nM and 4.8 nM. In addition, the GI50 in test [2] was 435 nM and 605 nM.
In the case of `CCOc1cc2c(Nc3cc(OC)c(Cl)cc3Cl)c(C#N)cnc2cc1C#CCCN1CCN(C)CC1` [Example 5, 4-[(2,4-Dichloro-5-methoxyphenyl)amino]-6-ethoxy-7-[4-(4-methylpiperazin-1-yl)but-1-ynyl]-3-quinolinecarbonitrile], the IC50 in test [1] was 6.5 nM and 2.8 nM. The GI50 in test [2] was 96 nM and 183 nM and 154 nM and 103 nM.

In general, IC50 refers to the concentration at which inhibition is half-maximal.
